A short description of series [1]: temperature cycling test of FS200 flowable concentrate for seed treatment formulations, analysed under a microscope (40×) for crystal growth. It is filed as physicochemical. The following applies: for crystal growth: FS formulation. How it is done:
As mentioned previously, it is crucial for the successful application of an agrochemical and/or pharmaceutical formulation that the crystalline form is stable in the particular formulation environment. Flowable concentrates for seed treatment (FS) formulations were prepared for both Form A and Form B. The only difference between the two formulations was the polymorphic form used, all of the other components were identical. The formulations were analyzed under a microscope (40×) for possible crystal growth which can have detrimental consequences such as thickening and potentially solidification of the formulation which can in turn lead to blockages in application equipment, e.g. in seed coating equipment or in spray nozzles in agricultural application machinery. Pictures were taken of the formulations at (i) start (FIGS. 13a and 14a), (ii) immediately after the temperature cycling test (FIGS. 13b and 14b) and (iii) two days at room temperature (RT) after the temperature cycling test (FIGS. 13c and 14c). The pictures are shown for the formulation comprising Form A in FIGS. 13a, 13b and 13c and the pictures for the formulations comprising Form B in FIGS. 14a, 14b and 14c. […] The recipe used is given in Table 8: The above formulations were tested for stability in a temperature cycling test as shown in FIG. 12. The formulations were then analyzed under the microscope (40×) to check for possible stability issues, in particular crystal growth and pictures were taken.

The nature of series [2]: chemical stability of the polymorphic forms in the formulations tested. As to conditions: in the FS formulations tested.
Setting [3] is: at start, before the temperature cycling test, microscope 40× (FIGS. 13a, 14a).
Setting [4] is: immediately after the temperature cycling test, microscope 40× (FIGS. 13b, 14b).
Setting [5] is: two days at room temperature after the temperature cycling test, microscope 40× (FIGS. 13c, 14c).

For `O=C(N[C@H]1CC[C@H]1c1ccc(Cl)cc1Cl)c1cccnc1C(F)(F)F` [Form A, N-[(1S,2S)-2-(2,4-dichlorophenyl)cyclobutyl]-2-(trifluoromethyl) pyridine-3-carboxamide], the crystal growth entry in series [1] (setting [3]) is listed as “did not exhibit any crystal growth”; in series [1] (setting [4]) it was “clear crystal growth”; in series [1] (setting [5]), “even further crystal growth”.
In the case of `O=C(N[C@H]1CC[C@H]1c1ccc(Cl)cc1Cl)c1cccnc1C(F)(F)F` [Form B, (1S,2S) N-[2-(2,4-dichlorophenyl)cyclobutyl]-2-(trifluoromethyl)pyridine-3-carboxamide], the figures for the crystal growth entry in series [1] (setting [3]), in series [1] (setting [4]) and in series [1] (setting [5]) were “did not exhibit any crystal growth”, “no such crystal growth” and “no such crystal growth”, respectively. Besides, the “resistance to crystal growth” value in series [1] (when exposed to typical storage conditions) is “surprisingly resistant to crystal growth”. For the same compound, in series [2], the “chemical stability (compound degradation)” value is “no compound degradation was observed”.

For the origin of these results see patent US11053201B2, “Crystalline forms” (SYNGENTA PARTICIPATIONS AG, priority 2018, dated 2021).
